Measurements taken from patent US10857127B2, “Vaginal delivery systems containing selective estrogen receptor modulator (SERM) and uses thereof” (Azure Biotech, Inc., priority 2016, dated 2020).

Experiments:
[1] = hydroperoxides, cited from earlier work; for Average HPO: average of lots tested; for High HPO Lot: highest lot; for Low HPO Lot: lowest lot
[2] = Peroxide value of excipients at the opening of the container; type: physicochemical; details: measured after opening the container
[3] = Dissolution studies of Lasofoxifene in organic solvents and surfactants; type: physicochemical; details: visual examination
Procedure: The solubility of Lasofoxifene was investigated by screening various organic solvents and surfactants in increasing concentrations. The term “formulation” may refer to a pharmaceutical composition comprising […] pharmaceutically acceptable excipients.
First, 1 mg of Lasofoxifene was weighed into Eppendorf vessels and 500 μl of organic solvents and surfactants as listed in Table 20 were added. In cases of insufficient dissolution of the API, samples were treated with ultrasound for 30 min and, if necessary, heated to 50° C. while shaking (300 rpm). Afterwards, samples were examined visually regarding drug dissolution. In case of entire dissolution, the experiment was repeated with increasing drug concentrations until maximum dissolution was achieved. In addition, further organic solvents and surfactants were tested.

[4] = as above; type: physicochemical; details: Lasofoxifene 1 mg/ml in the labelled solvent/surfactant; visual examination

Compound | Average HPO [1] [nmol/g] | High HPO Lot [1] [nmol/g] | Low HPO Lot [1] [nmol/g] | Peroxide value [2] [µmol] | Dissolution of Lasofoxifene in various organic solvents and surfactants, 2 mg/ml ([3]; Lasofoxifene 2 mg/ml in the labelled solvent/surfactant) | Dissolution of Lasofoxifene in various organic solvents and surfactants, 3 mg/ml ([3]; Lasofoxifene 3 mg/ml in the labelled solvent/surfactant) | Dissolution of Lasofoxifene in various organic solvents and surfactants, 6 mg/ml ([3]; Lasofoxifene 6 mg/ml in the labelled solvent/surfactant) | Dissolution of Lasofoxifene in various organic solvents and surfactants, 1 mg/ml [4]
OC[C@@H](O)[C@@H](O)[C@H](O)[C@H](O)CO [Mannitol] | <10 | <10 | <10 |  |  |  |  | 
OC[C@H]1O[C@@H](O[C@H]2[C@H](O)[C@@H](O)C(O)O[C@@H]2CO)[C@H](O)[C@@H](O)[C@H]1O (some centres unmarked) [Lactose] | <10 | 10 | <10 |  |  |  |  | 
OC[C@H]1O[C@@](CO)(O[C@H]2O[C@H](CO)[C@@H](O)[C@H](O)[C@H]2O)[C@@H](O)[C@@H]1O [Sucrose] | <10 | 20 | <10 |  |  |  |  | 
Tetraglycol [Tetraglycol (TG)] |  |  |  | 1.55 | dissolved | partially | not dissolved | dissolved
